The record followed here is patent publication US20230255205A1, “HERBICIDAL HETEROCYCLIC DERIVATIVES” (MoA Technology Limited, priority 2020, published 2023).

As usually defined, the pest or weed control is how far the test organism was held down.

Test in all cases: Post-emergence herbicidal test, % visual injury
Common to all, as to format: in vivo
Details in all cases: 336 h, 14±1 days post application; for pest or weed control at 500 g/ha: rate 500 g/ha; for pest or weed control at 250 g/ha: rate 250 g/ha

The test system of assay [1] is Amaranthus retroflexus (AMARE). How it is done: (§1) Seeds of a variety of test species are grown in a sandy loam soil mixture, Lolium multiflorum (LOLMU), Amaranthus retroflexus (AMARE), Echinochloa crus-galli (ECHCG), Veronica persica (VERPE).
(§2) After sowing, at growth stage BBCH 12-14 (post-emergence), the plants are sprayed with an aqueous spray solution derived from the formulation of the technical active ingredient in acetone/water (50:50) solution containing 0.5% Tween 20 (polyoxyethlyene sorbitan monolaureate, CAS RN 9005-64-5). The test compounds are applied at the required concentration of active ingredient in g/ha. The test plants are then grown in a glasshouse under controlled environmental conditions and watered regularly as required. After 14±1 days post application (for post-emergence test), the test is evaluated by assessing the percentage damage caused to the plants in comparison with the untreated plots. The biological activities for post-emergence testing are shown below (Table 3) as a % visual injury.

Assay [2] concerns Veronica persica (VERPE). How it is done:
as §1, §2

Assay [3] relates to Lolium multiflorum (LOLMU). Here is the method: as §1, §2
Assay [4] concerns Echinochloa crus-galli (ECHCG). Here is the method: as §1, §2

Turning to `CCn1cnnc1NC(=O)COc1cccc(C(F)(F)F)c1` [Compound 102], the pest or weed control at 500 g/ha in assay [1] is 50%; in assay [2], 7%; in assay [3], 0%; in assay [4] it was 70%.
The matching figures for `O=C(COc1ccc(Br)cc1F)Nc1nnc(C(F)(F)F)[nH]1` [Compound 17]: 60%, 70%, 0% and 0%.
On the same counts, the results for `O=C(COc1ccc(F)cc1Cl)Nc1n[nH]c(C2CC2)n1` [Compound 1] are 100%, 60%, 40% and 90%.
With `O=C(COc1ccc(Cl)cc1Cl)Nc1nnc(C(F)(F)F)o1` [Compound 97], the pest or weed control at 125 g/ha stood at 100% in assay [1] (rate 125 g/ha), 100% in assay [2] (rate 125 g/ha), 0% in assay [3] (rate 125 g/ha) and 0% in assay [4] (rate 125 g/ha).
Take `Cn1nc(C(F)(F)F)nc1NC(=O)COc1ccc(F)cc1Cl` [Compound 41, 2-(2-chloro-4-fluorophenoxy)-N-[1-methyl-3-(trifluoromethyl)-1H-1,2,4-triazol-5-yl]acetamide]: the pest or weed control at 500 g/ha came out at 95% in assay [1], 70% in assay [2], 40% in assay [3] and 60% in assay [4].
On the same counts, the results for `CCC(Oc1ccccc1Cl)C(=O)Nc1nnc(C(F)(F)F)[nH]1` (stereo not shown) [Compound 12] are 70%, 60%, 0% and 10%.
On the same counts, the results for `O=C(COc1ccc(F)cc1Cl)Nc1nnc(-c2cccc3ccccc23)[nH]1` [Compound 101] are 100%, 80%, 20% and 70%.
On the same counts, the results for `CC(C)c1nnc(NC(=O)COc2ccc(F)cc2Cl)[nH]1` [Compound 23, 2-(2-chloro-4-fluorophenoxy)-N-[5-(propan-2-yl)-4H-1,2,4-triazol-3-yl]acetamide] are 100%, 100%, 40% and 90%.
With `COc1nnc(NC(=O)COc2ccc(F)cc2Cl)[nH]1` [Compound 99], the pest or weed control at 250 g/ha is 50% in assay [1], 50% in assay [2], 0% in assay [3] and 0% in assay [4].
Consider `CS(=O)(=O)c1ccc(OCC(=O)Nc2nnc(C(F)(F)F)[nH]2)cc1` [Compound 13], for which the pest or weed control at 500 g/ha in assay [1] turned out to be 60%; in assay [2], 80%; in assay [3], 60%; in assay [4], 0%.
For `O=C(COc1ccccc1-n1cnnc1)Nc1nc(C(F)(F)F)n[nH]1` [Compound 92], the pest or weed control at 500 g/ha stood at 0% in assay [1], 70% in assay [2], 0% in assay [3] and 0% in assay [4].
Regarding `CC(C)(C)c1nc(NC(=O)COc2ccc(F)cc2Cl)n[nH]1` [Compound 7], the pest or weed control at 500 g/ha is 60% in assay [1], 60% in assay [2], 40% in assay [3] and 80% in assay [4].
Take `CN(C(=O)COc1ccc(F)cc1Cl)c1nc(C(F)(F)F)nn1C` [Compound 42, 2-(2-chloro-4-fluorophenoxy)-N-methyl-N-[1-methyl-3-(trifluoromethyl)-1H-1,2,4-triazol-5-yl]acetamide]: the pest or weed control at 500 g/ha in assay [1] came out at 90%; in assay [2] it was 60%; in assay [3], 40%; in assay [4] it was 60%.
Turning to `Cc1ccc(OCC(=O)Nc2nnc(C(F)(F)F)[nH]2)cc1` [Compound 20], the pest or weed control at 500 g/ha in assay [1] was found to be 0%; in assay [2], 40%; in assay [3], 0%; in assay [4], 30%.
Take `CC(Oc1cccc(Cl)c1)C(=O)Nc1nnn[nH]1` (stereo not shown) [Compound 98]: the pest or weed control at 250 g/ha in assay [1] worked out at 0%; in assay [2] it was 20%; in assay [3], 10%; in assay [4] it was 0%.
Take `O=C(COc1c(Cl)cccc1Cl)Nc1nnc(C(F)(F)F)[nH]1` [Compound 9]: the pest or weed control at 500 g/ha turned out to be 20% in assay [1], 0% in assay [2], 0% in assay [3] and 0% in assay [4].
On to `O=C(COc1ccc(Cl)cc1Cl)Nc1nnc(-c2ccc(F)cc2)[nH]1` [Compound 96], for which the pest or weed control at 500 g/ha in assay [1] amounted to 90%; in assay [2], 90%; in assay [3], 0%; in assay [4], 30%.
In the case of `O=C(COc1cccc(Br)c1)Nc1nnc(C(F)(F)F)[nH]1` [Compound 21], the pest or weed control at 500 g/ha in assay [1] is 0%; in assay [2], 60%; in assay [3], 20%; in assay [4], 0%.
As to `O=C(COc1ccc(F)cc1Cl)Nc1nnc(N2CCCC2)[nH]1` [Compound 6], the pest or weed control at 500 g/ha was found to be 50% in assay [1], 50% in assay [2], 0% in assay [3] and 20% in assay [4].
As for `O=C(COc1ccc(Cl)c(F)c1)Nc1nnc(C(F)(F)F)[nH]1` [Compound 16, 2-(4-chloro-3-fluorophenoxy)-N-[5-(trifluoromethyl)-4H-1,2,4-triazol-3-yl]acetamide], the pest or weed control at 500 g/ha came to 100% in assay [1], 70% in assay [2], 0% in assay [3] and 20% in assay [4].
On the same counts, the results for `O=C(COc1ccc2c(c1)NC(=O)CC2)Nc1nc(C(F)(F)F)n[nH]1` [Compound 90] are 0%, 70%, 0% and 0%.
In the case of `Cn1c(NC(=O)COc2ccc(F)cc2Cl)nnc1C(F)(F)F` [Compound 40], the pest or weed control at 500 g/ha amounted to 100% in assay [1], 100% in assay [2], 60% in assay [3] and 70% in assay [4].
With `O=C(COc1cc(Cl)c(Cl)cc1Cl)Nc1nnc(C(F)(F)F)[nH]1` [Compound 39], the pest or weed control at 500 g/ha in assay [1] came out at 80%; in assay [2] it was 50%; in assay [3], 0%; in assay [4], 0%.
Take `Cc1cccc(C)c1OCC(=O)Nc1nnc(C(F)(F)F)[nH]1` [Compound 100]: the pest or weed control at 500 g/ha in assay [1] amounted to 0%; in assay [2], 20%; in assay [3], 0%; in assay [4], 0%.
For `Cc1cccc(Cl)c1OCC(=O)Nc1nnc(C(F)(F)F)[nH]1` [Compound 18], the pest or weed control at 500 g/ha is 0% in assay [1], 70% in assay [2], 0% in assay [3] and 0% in assay [4].
Consider `O=C(COc1ccc(F)cc1Cl)Nc1n[nH]c(C2CCC2)n1` [Compound 22], for which the pest or weed control at 500 g/ha in assay [1] stood at 100%; in assay [2] it was 90%; in assay [3], 40%; in assay [4] it was 90%.
For `O=C(COc1ccc(F)c(Cl)c1)Nc1nnc(C(F)(F)F)[nH]1` [Compound 5], the pest or weed control at 500 g/ha was 80% in assay [1], 98% in assay [2], 0% in assay [3] and 30% in assay [4].
The matching figures for `O=C(COc1ccc(F)cc1Cl)Nc1nnc(C(F)F)[nH]1` [Compound 14]: 100%, 60%, 60% and 90%.
The matching figures for `COCc1n[nH]c(NC(=O)COc2ccc(F)cc2Cl)n1` [Compound 3]: 100%, 90%, 60% and 90%.
The matching figures for `Nc1c(Cl)c(F)nc(OCC(=O)Nc2nnc(C(F)(F)F)[nH]2)c1Cl` [Compound 38]: 100%, 98%, 30% and 0%.
Consider `O=C(COc1ccc(F)cc1F)Nc1nnc(C(F)(F)F)[nH]1` [Compound 10, 2-(2,4-difluorophenoxy)-N-[5-(trifluoromethyl)-4H-1,2,4-triazol-3-yl]acetamide], for which the pest or weed control at 500 g/ha came out at 40% in assay [1], 80% in assay [2], 0% in assay [3] and 30% in assay [4].
